Laboratory results: patent US20260193236A1 (Protego Biopharma, Inc., priority 2022, published 2026)

These molecules were tested on IRE1-XBP1s (XBP1-RLuc splicing reporter in HEK293 T-REx cells) (assay: IRE1-XBP1s activation assay (XBP1-RLuc splicing reporter, HEK293 T-REx cells, luminescence relative to thapsigargin)). Conditions: 18 h, compound 10 μM, HEK293 T-REx XBP1-RLuc reporter cells, relative to thapsigargin (Tg) 500 nM, read-out: Activity (IRE1-XBP1s activation, luminescence as % signal relative to thapsigargin, % Tg).
Type: cell-based
Experimental: IRE1-XBP1s activation Assay: HEK293 T-REx cells stably expressing the XBP1-RLuc splicing reporter were treated with an IRE1-XBP1s activator provided herein (10 μM) in the presence or absence of the IRE1 active site inhibitor 4μ8C (32 μM) for 18 h. Luminescence was shown as the percentage signal relative to thapsigargin (Tg) (500 nM, 18 h).

SMILES | activation at 10 µM [%]
Cc1ccc(OCCN(C)C(=O)Cn2cc(NC(=O)CCOc3ccnc(N)n3)cn2)cc1 [Compound 99] | > 50
Cc1ccc(OCCN(C)C(=O)Cn2cc(NC(=O)CCOc3cccc(Br)n3)cn2)cc1 [Compound 100] | > 50
Cc1ccc(OCCN(C)C(=O)Cn2cc(NC(=O)CCOc3ccnc(NC(=O)OC(C)(C)C)c3)cn2)cc1 [Compound 101] | > 50
Cc1ccc(OCCN(C)C(=O)Cn2cc(NC(=O)CCOc3cccc(NC(=O)OC(C)(C)C)n3)cn2)cc1 [Compound 102] | > 50
Cc1ccc(OCCN(C)C(=O)Cn2cc(NC(=O)CCOc3cccc(N)n3)cn2)cc1 [Compound 103] | > 50
Cc1ccc(OCCN(C)C(=O)Cn2cc(NC(=O)CCOc3ccnc(N)c3)cn2)cc1 [Compound 104] | > 50
Cc1ccc(OCCN(C)C(=O)Cn2cc(NC(=O)CCOc3cccc(C)n3)cn2)cc1 [Compound 105] | > 50
CNc1nccc(OCCC(=O)Nc2cnn(CC(=O)N(C)CCOc3ccc(C)cc3)c2)n1 [Compound 106] | > 50
C=C(C)c1cccc(OCCC(=O)Nc2cnn(CC(=O)N(C)CCOc3ccc(C)cc3)c2)n1 [Compound 107] | < 30
Cc1ccc(OCCN(C)C(=O)Cn2cc(NC(=O)CCOc3cccc(C(C)C)n3)cn2)cc1 [Compound 108] | < 30
Cc1ccc(OCCN(C)C(=O)Cn2cc(NC(=O)CCOc3ncncc3N)cn2)cc1 [Compound 109] | > 50
Cc1ccc(OCCN(C)C(=O)Cn2cc(NC(=O)CCOc3ccncc3[N+](=O)[O-])cn2)cc1 [Compound 111] | < 30
Cc1ccc(OCCN(C)C(=O)Cn2cc(NC(=O)CCOc3ccncc3N)cn2)cc1 [Compound 112] | 30 to 50
Cc1ccc(OCCN(C)C(=O)Cn2cc(NC(=O)CCOc3ncccc3[N+](=O)[O-])cn2)cc1 [Compound 113] | > 50
Cc1ccc(OCCN(C)C(=O)Cn2cc(NC(=O)CCOc3ncccc3N)cn2)cc1 [Compound 114] | > 50
Cc1ccc(OCCN(C)C(=O)Cn2cc(NC(=O)/C=C/Oc3c(Cl)ccnc3C)cn2)cc1 [Compound 115] | < 30
Cc1ccc(OCCN(C)C(=O)Cn2cc(NC(=O)CCOc3c(F)cc(C)cc3F)cn2)cc1 [Compound 116] | > 50
Cc1ccc(OCCN(C)C(=O)Cn2cc(NC(=O)CCOc3cncnc3N)cn2)cc1 [Compound 117] | < 30
Cc1ccc(OCCN(C)C(=O)Cn2cc(NC(=O)CCNc3cncc(N)c3)cn2)cc1 [Compound 119] | < 30
COc1cc(NCCC(=O)Nc2cnn(CC(=O)N(C)CCOc3ccc(C)cc3)c2)ccn1 [Compound 120] | > 50
Cc1ccc(OCCN(C)C(=O)Cn2cc(NC(=O)CCNc3cnc(F)c(C)c3)cn2)cc1 [Compound 121] | > 50
Cc1ccc(OCCN(C)C(=O)Cn2cc(NC(=O)CCNc3cncc(N)n3)cn2)cc1 [Compound 122] | < 30
Cc1ccc(OCCN(C)C(=O)Cn2cc(NC(=O)CCNc3cc(C)nc(C)c3)cn2)cc1 [Compound 123, 3-((2,6-dimethylpyridin-4-yl)amino)-N-(1-(2-(methyl(2-(p-tolyloxy)ethyl)amino)-2-oxoethyl)-1H-pyrazol-4-yl)propanamide] | 30 to 50

SMILES | activation at 10 µM [%]
COc1ccc(OCCN(C)C(=O)Cn2cc(NC(=O)CCNc3ccnc4ncnn34)cn2)cc1 [Compound 124] | 30 to 50
Cc1ccc(OCCN(C)C(=O)Cn2cc(NC(=O)CCNc3ncc(C#N)cn3)cn2)cc1 [Compound 125] | < 30
Cc1ccc(OCCN(C)C(=O)Cn2cc(NC(=O)CCNc3ccc(C)cn3)cn2)cc1 [Compound 126] | < 30
Cc1ccc(OCCN(C)C(=O)Cn2cc(NC(=O)CCNc3cnc(Cl)cn3)cn2)cc1 [Compound 127] | > 50
Cc1ccc(OCCN(C)C(=O)Cn2cc(NC(=O)CCNc3ccnc(C(F)(F)F)c3)cn2)cc1 [Compound 128] | < 30
Cc1ccc(OCCN(C)C(=O)Cn2cc(NC(=O)CCNc3ccc(Cl)cn3)cn2)cc1 [Compound 129] | < 30
Cc1ccc(OCCN(C)C(=O)Cn2cc(NC(=O)CCNc3ncc(C(F)(F)F)cc3Cl)cn2)cc1 [Compound 130] | < 30
Cc1ccc(OCCN(C)C(=O)Cn2cc(NC(=O)CCNc3ccnc(F)c3)cn2)cc1 [Compound 131] | 30 to 50
Cc1ccc(OCCN(C)C(=O)Cn2cc(NC(=O)CCNc3cccc(C#N)n3)cn2)cc1 [Compound 132] | > 50
Cc1ccc(OCCN(C)C(=O)Cn2cc(NC(=O)CCNc3cc(C(F)(F)F)ccn3)cn2)cc1 [Compound 133] | > 50
Cc1ccc(OCCN(C)C(=O)Cn2cc(NC(=O)CCNc3nc(Cl)ns3)cn2)cc1 [Compound 134] | > 50
Cc1ccc(OCCN(C)C(=O)Cn2cc(NC(=O)CCNc3ccnc(Br)c3)cn2)cc1 [Compound 135] | 30 to 50
Cc1ccc(OCCN(C)C(=O)Cn2cc(NC(=O)CCNc3ccnc(F)n3)cn2)cc1 [Compound 136] | 30 to 50
Cc1ccc(OCCN(C)C(=O)Cn2cc(NC(=O)CCNc3cc(C#N)ccn3)cn2)cc1 [Compound 137] | < 30
Cc1ccc(OCCN(C)C(=O)Cn2cc(NC(=O)CCNc3ncccn3)cn2)cc1 [Compound 138] | > 50
Cc1ccc(OCCN(C)C(=O)Cn2cc(NC(=O)CCNc3nccc(F)n3)cn2)cc1 [Compound 139] | < 30
Cc1ccc(OCCN(C)C(=O)Cn2cc(NC(=O)CCNc3ncc(Cl)cc3F)cn2)cc1 [Compound 140] | > 50
Cc1ccc(OCCN(C)C(=O)Cn2cc(NC(=O)CCNc3ncccc3C#N)cn2)cc1 [Compound 141] | < 30
CCc1nccnc1NCCC(=O)Nc1cnn(CC(=O)N(C)CCOc2ccc(C)cc2)c1 [Compound 142] | 30 to 50
Cc1ccc(OCCN(C)C(=O)Cn2cc(NC(=O)CCNc3cc(F)ncc3F)cn2)cc1 [Compound 143] | < 30
Cc1ccc(OCCN(C)C(=O)Cn2cc(NC(=O)CCNc3cccc(F)n3)cn2)cc1 [Compound 144] | > 50
Cc1ccc(OCCN(C)C(=O)Cn2cc(NC(=O)CCNc3cc(Cl)ccn3)cn2)cc1 [Compound 145] | < 30
Cc1ccc(OCCN(C)C(=O)Cn2cc(NC(=O)CCNc3ncccc3F)cn2)cc1 [Compound 146] | 30 to 50

SMILES | activation at 10 µM [%]
Cc1ccc(OCCN(C)C(=O)Cn2cc(NC(=O)CCNc3nccnc3Cl)cn2)cc1 [Compound 147] | > 50
Cc1ccc(OCCN(C)C(=O)Cn2cc(NC(=O)CCNc3ncccc3Cl)cn2)cc1 [Compound 148] | 30 to 50
Cc1ccc(OCCN(C)C(=O)Cn2cc(NC(=O)CCNc3ccnc(Cl)c3)cn2)cc1 [Compound 149] | > 50
Cc1ccc(OCCN(C)C(=O)Cn2cc(NC(=O)CCNc3c(F)cncc3Cl)cn2)cc1 [Compound 150] | 30 to 50
Cc1ccc(OCCN(C)C(=O)Cn2cc(NC(=O)CCNc3cncc(Cl)n3)cn2)cc1 [Compound 151] | 30 to 50
Cc1ccc(OCCN(C)C(=O)Cn2cc(NC(=O)CCNc3c(Cl)cncc3Cl)cn2)cc1 [Compound 152] | > 50
Cc1ccc(OCCN(C)C(=O)Cn2cc(NC(=O)CCNc3ccnc(N)c3)cn2)cc1 [Compound 153] | < 30
Cc1ccc(OCCN(C)C(=O)Cn2cc(NC(=O)CCNc3cccc(N)n3)cn2)cc1 [Compound 154] | > 50
Cc1ccc(OCCN(C)C(=O)Cn2cc(NC(=O)CCNc3ccncc3)cn2)cc1 [Compound 155] | < 30
Cc1ccc(OCCN(C)C(=O)Cn2cc(NC(=O)CCNc3cccc(Cl)n3)cn2)cc1 [Compound 156] | > 50
Cc1ccc(OCCN(C)C(=O)Cn2cc(NC(=O)CCNc3ccc(C#N)cn3)cn2)cc1 [Compound 157] | < 30
Cc1ccc(OCCN(C)C(=O)Cn2cc(NC(=O)CCNc3ccnc(N)n3)cn2)cc1 [Compound 158] | < 30
Cc1ccc(OCCN(C)C(=O)Cn2cc(NC(=O)CCNc3nc(C)ccc3F)cn2)cc1 [Compound 159] | 30 to 50
Cc1ccc(OCCN(C)C(=O)Cn2cc(NC(=O)CCNc3cccc(C)n3)cn2)cc1 [Compound 160] | 30 to 50
Cc1ccc(OCCN(C)C(=O)Cn2cc(NC(=O)CCNc3ncncc3C(C)C)cn2)cc1 [Compound 161] | > 50
Cc1ccc(OCCN(C)C(=O)Cn2cc(NC(=O)C(CNc3ncc(F)cn3)CC(C)C)cn2)cc1 (stereo not drawn) [Compound 162] | < 30
Cc1ccc(OCCN(C)C(=O)Cn2cc(NC(=O)C(O)CNc3ncc(F)cn3)cn2)cc1 (stereo not drawn) [Compound 163] | < 30
Cc1ccc(OCCN(C)C(=O)Cn2cc(NC(=O)CCNc3ccnc(C)c3)cn2)cc1 [Compound 164, N-(1-(2-(methyl(2-(p-tolyloxy)ethyl)amino)-2-oxoethyl)-1H-pyrazol-4-yl)-3-((2-methylpyridin-4-yl)amino)propanamide] | 30 to 50
Cc1ccc(OCCN(C)C(=O)Cn2cc(NC(=O)CCNc3ccc(OCc4ccccc4)cn3)cn2)cc1 [Compound 165] | < 30
COc1ccc(OCCN(C)C(=O)Cn2cc(NC(=O)CCNc3ccnc(C)c3)cn2)cc1 [Compound 166] | < 30
Cc1ccc(OCCN(C)C(=O)Cn2cc(NC(=O)C(CNc3ccc(F)nc3C)c3ccccc3)cn2)cc1 (stereo not drawn) [Compound 167] | < 30
COc1ccc(OCCN(C)C(=O)Cn2cc(NC(=O)CCNc3cc(C)ncc3C)cn2)cc1 [Compound 168] | 30 to 50
COc1ccc(OCCN(C)C(=O)Cn2cc(NC(=O)CCNc3ccnc(OC)c3)cn2)cc1 [Compound 169] | > 50
